Read-outs that look alike come from different tables or passages of the source.
Columns and labels:
HepG2 cells [1] = conditions: read-out: IC50, expected literature value reported in the manual for the Neutral Red Assay; cited from earlier work
HepG2 cells [2] = assay: Neutral Red Assay, cell viability/cytotoxicity; type: cell-based; conditions: Homo sapiens, 48 h, 2 days after compound addition, n=3
Procedure: It is a cellular assay that is based on a eurhodin dye that stains the lysosomes of viable cells. HepG2 cells were supplied by ATCC (HB-8065), cultured in DMEM supplemented with 10% FBS and grown in a incubator set to 37° C. and 5% CO2. For both assays, cells were seeded at 5.000 cells/well in a 96-well plate using only the 32 central wells. Due to inherent clumping of HepG2 cells, amount of cells could not be properly measured and varied between assays. […] Cells were processed after 2 days of compound addition. The Neutral Red Assay Kit—Cell Viability/Cytotoxicity (ab234039, Abcam) was used. All solutions of the kit were aliquoted and stored at −20° C. as recommended. […] Cell medium was removed and cells washed with 200 μL of 1× washing solution. After addition of 150 μL of 1× Neutral Red Staining Solution, cells were stained for 2 hours in the incubator. Cells were washed with 250 μL of 1× washing solution, and then air dried for approx. 10 min until no liquid was visible on the plate. Addition of 150 μL 1× solubilization solution was followed by shaking the plate for 20 min at 500 rpm and RT. The 96-well plate was then read at a microplate reader at an OD of 540 nm.

HepG2 cells [3] = assay: cells; conditions: Homo sapiens, HepG2, 48 h
Procedure: This cellular assay quantitates the amount of ATP that can be correlated to cell viability. HepG2 cells were supplied by ATCC (HB-8065), cultured in DMEM supplemented with 10% FBS and grown in a incubator set to 37° C. and 5% CO2. For both assays, cells were seeded at 5.000 cells/well in a 96-well plate using only the 32 central wells. Due to inherent clumping of HepG2 cells, amount of cells could not be properly measured and varied between assays. Various concentrations of Doxorubicin were added 18 hours after seeding to the cells at a volume of 0.2 μL of cells using IDOT. Cells were processed after 2 days of compound addition. The CellTiter-Glo 2.0 Cell Viability Assay (G9242, Promega) was used. The solution was thawed and stored at 4° C. as recommended. Cell medium was removed, then cells were washed 2× in 100 μL PBS. After the last wash, 50 μL of PBS followed by 50 μL of CellTiter-Glo 2.0 reagent were added. The 96-well plate was mixed for 2 min on an orbital shaker and incubated at 10 min at RT. Luminescence was recorded at a microplate reader, using a integration time of 1.000 ms. For both assays, data for dose-response experiments was fitted with the equation “Log(agonist) vs response−Variable slope (four parameters)” using Prism.

IC50 (HepG2 cells [3]): 116 nM
SMILES: COc1cccc2c1C(=O)c1c(O)c3c(c(O)c1C2=O)C[C@@](O)(C(=O)CO)C[C@@H]3O[C@H]1C[C@H](N)[C@H](O)[C@H](C)O1 [Doxorubicin]
IC50 (HepG2 cells [1]): 690 nM
IC50 (HepG2 cells [2]): 79 nM

From patent publication US20250072441A1, “METHOD FOR PREPARING A COMESTIBLE NUTRIENT COMPOSITION AND USE THEREOF” (The Cultivated B. GmbH, priority 2022, published 2025)
